In assay [1] the target is T1, human recombinant bradykinin B1 receptor (Homo sapiens, UniProt P46663).
T1 construct: purchased Euroscreen ES-091; host or cells: CHO cells
T1 sequence (P46663 1-353): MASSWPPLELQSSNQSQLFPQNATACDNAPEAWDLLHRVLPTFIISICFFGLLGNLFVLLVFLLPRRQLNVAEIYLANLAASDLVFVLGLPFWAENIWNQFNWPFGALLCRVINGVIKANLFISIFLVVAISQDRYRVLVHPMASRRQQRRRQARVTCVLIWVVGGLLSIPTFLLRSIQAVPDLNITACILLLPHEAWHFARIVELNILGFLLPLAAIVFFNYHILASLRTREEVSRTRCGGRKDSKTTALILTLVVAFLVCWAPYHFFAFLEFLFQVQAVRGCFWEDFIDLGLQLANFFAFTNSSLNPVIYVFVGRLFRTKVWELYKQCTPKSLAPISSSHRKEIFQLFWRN
Briefly: Human recombinant bradykinin B1 receptor binding. Particulars: radioligand [3H]-[Des-Arg10] Kallidin, CHO cell membranes; read-out: B1 binding. As for the experimental part: 1. Human Recombinant Bradykinin B1 Receptor Binding
Binding assays were carried out on human recombinant bradykinin) receptors (expressed in CHO cells) according to the Euroscreen Technical Data Sheet (Cat.No.:ES-091). 20 μg protein/tube was incubated with [3,4-prolyl-3,4-^3H(N)]-[Des-Arg^10] Kallidin as radioligand. Non specific binding was determined in the presence of 10 μM Lys-des-Arg^9-Bradykinin. The final incubation volume was 250 μl. Samples were incubated for 15 min. at 25° C. then were rapidly vacuum filtered through GF/B filters presoaked for at least 1 h in 0.5% PEI. Radioactivity was determined by liquid scintillation spectroscopy.

The target in assay [2] is T2, recombinant human B1 receptors (Homo sapiens, UniProt P46663).
T2 construct: host or cells: CHO (CHO-B1)
T2 sequence (P46663 1-353): T1 sequence (P46663 1-353)
The assay is described as follows: Functional assay: cytosolic calcium ion concentration measured with plate reader fluorimeter in CHO-B1 cells, agonist LysDABK. It counts as cell-based. As to conditions: CHO-B1 cells, LysDABK at EC80, [Ca2+]i; read-out: B1 func. As for the experimental part:
Assessment of Antagonist Potency at B1 and B2 Receptors In Vitro by Measurement of Cytosolic Calcium Ion Concentration with a Plate Reader Fluorimeter in Cells Expressing Recombinant Human B1 or B2 Receptors
Chinese hamster ovary (CHO) cells stably expressing recombinant human B1 (CHO-B1, Euroscreen) or B2 (CHO-B2, Perkin-Elmer) receptors were cultured in Dulbecco's Modified Eagle's Medium (DMEM) containing 10% Fetal Calf Serum (FCS), 100 U/ml penicillin, 0.1 mg/ml streptomycin, 0.25 μg/ml amphotericin B, 1% Minimum Essential Medium Eagle (MEM), non essential amino acid solution, 600 μg/ml G418, 1% pyruvate (for the B2 cell line). Cells were kept at 37° C. in a humidified incubator in an atmosphere of 5% CO2/95% air and were passaged 1:4 three times a week. Cells were plated at 1.5-2.5×10^4 cell/well on standard 96-well microplates, measurements of cytosolic calcium ion concentration ([Ca^2+]i) were carried out 1-2 days after cell plating.
Measurements of [Ca^2+]i were carried out on CHO-B1 and CHO-B2 cells stably expressing human B1 and B2 receptors, respectively. Cells were grown in standard 96-well microplates and before the measurement were loaded with a fluorescent Ca^2+-sensitive dye, fluo-4/AM (2 μM): after removing the culture medium the dye was added to the cells (dissolved in assay buffer: 145 mM NaCl, 5 mM KCl, 2 mM MgCl2, 2 mM CaCl2, 10 mM HEPES, 20 mM D-glucose, 2 mM probenecid, 100 μl/well) and cells were incubated at 37° C. in a humidified incubator in an atmosphere of 5% CO2/95% air for 40-120 min. To stop dye loading cells were washed twice with assay buffer. After washing, various concentrations of the test compounds (diluted in extracellular medium from a DMSO stock solution, final DMSO concentration was <0.1%) or buffer were added to each well depending on the experimental setup. After incubation at 37° C. for 20-25 min. baseline and agonist-evoked changes of [Ca^2+]i were measured column by column with a plate reader fluorimeter (Fluoroskan Ascent, Labsystems). Excitation and detection of emission was carried out from the bottom of the plate. Filters used for Fluo-4: excitation filter—485 nm, emission filter—538 nm. The whole measurement process was performed at 37° C. and was controlled by custom software. Inhibitory potency of the test compounds was assessed by measuring the reduction in the agonist-evoked [Ca^2]i-elevation in the presence of different concentrations of the compounds. The agonists were LysDABK for CHO-B1, and bradykinin for CHO-B2 cells. Agonists were applied at an EC80 concentration, the EC80-values were derived from daily determined dose-response curves. Fluorescence data were expressed as ΔF/F (fluorescence change normalized to baseline). All treatments on a single plate were measured in multiple wells. Data from all wells with the same treatment were averaged and the average values were used for analysis. Inhibitory potency of a compound at a single concentration point was expressed as percent inhibition of the control agonist response. Sigmoidal concentration-inhibition curves were fitted to the data (derived from at least three independent experiments) and IC50-values were determined as the concentration that produces half of the maximal inhibition caused by the compound.

Structures can show the parent of a compound that is named as a salt.

Consider `O=C(NCCCN1CCC(N2CCCCC2)CC1)c1ccc(S(=O)(=O)Nc2ccccc2Oc2ccc(Br)cc2)cc1` [Example 111, N-(3-[1,4′]Bipiperidinyl-1′-yl-propyl)-4-[2-(4-bromo-phenoxy)-phenylsulfamoyl]-benzamide], for which, in assay [1], the Ki was below 20 nM. In assay [2], the IC50 was below 20 nM.
As for `O=C(NCCCC1CCNCC1)c1ccc(S(=O)(=O)Nc2ccccc2Oc2ccc(Cl)cc2Cl)cc1` [Example 137, 4-[2-(2,4-Dichloro-phenoxy)-phenylsulfamoyl]-N-(3-piperidin-4-yl-propyl)-benzamide trifluoracetate], in assay [1], the Ki lay within 20 to 100 nM. In addition, the IC50 in assay [2] was 20 to 100 nM.
Regarding `O=C(NCCC(=O)N1CCC(N2CCCCC2)CC1)c1ccc(S(=O)(=O)Nc2ccccc2Oc2ccc(Cl)cc2Cl)cc1` [Example 62, N-(3-[1,4′]Bipiperidinyl-1′-yl-3-oxo-propyl)-4-[2-(2,4-dichloro-phenoxy)-phenylsulfamoyl]-benzamide trifluoroacetate], the Ki in assay [1] was below 20 nM. In addition, in assay [2], the IC50 was below 20 nM.
As for `O=C(N[C@H]1CC[C@H](CCN2CCCC2)CC1)c1ccc(S(=O)(=O)Nc2ccccc2Oc2ccc(Cl)cc2Cl)cc1` [Example 9, trans-4-[2-(2,4-Dichloro-phenoxy)-phenylsulfamoyl]-N-[4-(2-pyrrolidin-1-ylethyl)-cyclohexyl]-benzamide], the Ki in assay [1] is below 20 nM. Moreover, in assay [2], the IC50 was 20 to 100 nM.
Taken in the same sequence, the figures for `O=C(NCCN1CCN(c2ccncc2)CC1)c1cccc(S(=O)(=O)Nc2ccccc2Oc2ccc(Cl)cc2Cl)c1` [Example 10, 3-[2-(2,4-Dichloro-phenoxy)-phenylsulfamoyl]-N-[2-(4-pyridin-4-yl-piperazin-1-yl)-ethyl]-benzamide dihydrochloride] were below 20 nM and 20 to 100 nM.
Consider `COc1ccc(Oc2ccccc2NS(=O)(=O)c2ccc(C(=O)NCCCN3CCC(N4CCCCC4)CC3)cc2)c(Cl)c1` [Example 147, N-(3-[1,4′]Bipiperidinyl-1′-yl-propyl)-4-[2-(2-chloro-4-methoxy-phenoxy)-phenylsulfamoyl]-benzamide], for which, in assay [1], the Ki fell in the range of 20 to 100 nM. Moreover, in assay [2], the IC50 lay in the range of 20 to 100 nM.
Consider `O=C(NCCc1ccc(C2=NCCN2)cc1)c1ccc(S(=O)(=O)Nc2ccccc2Oc2ccc(Br)cc2Cl)cc1` [Example 22, 4-[2-(4-Bromo-2-chloro-phenoxy)-phenylsulfamoyl]-N-{2-[4-(4,5-dihydro-1H-imidazol-2-yl)-phenyl]-ethyl}-benzamide], for which, in assay [1], the Ki is below 20 nM. Further, in assay [2], the IC50 is below 20 nM.
As for `O=C(NCCc1ccc(C2=NCCN2)cc1)c1ccc(S(=O)(=O)Nc2ccccc2Oc2ccc(Br)cc2)cc1` [Example 7, 4-[2-(4-Bromo-phenoxy)-phenylsulfamoyl]-N-{2-[4-(4,5-dihydro-4H-imidazol-2-yl)-phenyl]-ethyl}-benzamide], in assay [1], the Ki was below 20 nM. Also, the IC50 in assay [2] is below 20 nM.
For the compound `O=C(NCCN1CCN(c2ccncc2)CC1)c1ccc(S(=O)(=O)Nc2ccccc2Oc2ccc(Cl)cc2Cl)cc1` [Example 1, 4-[2-(2,4-Dichloro-phenoxy)-phenylsulfamoyl]-N-{2-[4-pyridin-4-yl-piperazin-1-yl)-ethyl]-benzamide dihydrochloride], the Ki in assay [1] was below 20 nM. The IC50 in assay [2] was below 20 nM.
Regarding `O=C(NCCCC1CCNCC1)c1ccc(S(=O)(=O)Nc2ccccc2Oc2ccc(Br)cc2Cl)cc1` [Example 30, 4-[2-(4-Bromo-2-chloro-phenoxy)-phenylsulfamoyl]-N-(3-piperidin-4-yl-propyl)-benzamide hydrochloride], the Ki in assay [1] was 20 to 100 nM. For the same compound, in assay [2], the IC50 is 20 to 100 nM.
`COc1cc(Cl)ccc1Oc1ccccc1NS(=O)(=O)c1ccc(C(=O)NCCCN2CCC(N3CCCCC3)CC2)cc1` [Example 132, N-(3-[1,4′]Bipiperidinyl-1′-yl-propyl)-4-[2-(4-chloro-2-methoxy-phenoxy)-phenylsulfamoyl]-benzamide]: the Ki in assay [1] was below 20 nM. Moreover, the IC50 in assay [2] was in the range of 20 to 100 nM.
The like results for “4-[1-(3,4-Dichloro-phenoxy)-phenylsulfamoyl]-N-[3-(4-pyridin-4-yl-piperazin-1-yl)-propyl]-benzamide [Example 66]” were, in that order, below 20 nM and below 20 nM.
On to `O=C(NCCNC(=O)C1CCNCC1)c1ccc(S(=O)(=O)Nc2ccccc2Oc2ccc(Cl)cc2Cl)cc1` [Example 29, Piperidine-4-carboxylic acid (2-{4-[2-(2,4-dichloro-phenoxy)-phenylsulfamoyl]-benzoylamino}-ethyl)-amide hydrochloride], for which the Ki in assay [1] fell in the range of 20 to 100 nM. Moreover, the IC50 in assay [2] lay within 20 to 100 nM.
Consider `O=C(NCCN1CCN(Cc2ccccn2)CC1)c1ccc(S(=O)(=O)Nc2ccccc2Oc2ccc(Br)cc2)cc1` [Example 99, 4-[2-(4-Bromo-phenoxy)-phenylsulfamoyl]-N-[2-(4-pyridin-2-ylmethyl-piperazin-1-yl)-ethyl]-benzamide], for which the Ki in assay [1] is 20 to 100 nM. For the same compound, in assay [2], the IC50 was 20 to 100 nM.
For the compound `O=C(NCCCCC1CCNCC1)c1ccc(S(=O)(=O)Nc2ccccc2Oc2ccc(F)cc2Cl)cc1` [Example 135, 4-[2-(2-Chloro-4-fluoro-phenoxy)-phenylsulfamoyl]-N-(4-piperidin-4-yl-butyl)-benzamide hydrochloride], the Ki in assay [1] lay in the range of 20 to 100 nM. Further, in assay [2], the IC50 was 20 to 100 nM.
On to `N=C(N)NCc1ccc(CNC(=O)c2ccc(S(=O)(=O)Nc3ccccc3Oc3ccc(Br)cc3)cc2)cc1` [Example 23, 4-[2-(4-Bromo-phenoxy)-phenylsulfamoyl]-N-(4-guanidinomethyl-benzyl)-benzamide hydrochloride], for which, in assay [1], the Ki lay within 20 to 100 nM. Besides, the IC50 in assay [2] was 100 to 500 nM.
Take `O=C(NCCc1ccc(C2=NCCN2)cc1)c1ccc(S(=O)(=O)Nc2ccccc2Oc2ccc(Cl)cc2)cc1` [Example 6, 4-[2-(4-Chloro-phenoxy)-phenylsulfamoyl]-N-{2-[4-(4,5-dihydro-1H-imidazol-2-yl)-phenyl]-ethyl}-benzamide]: in assay [1], the Ki is below 20 nM. Moreover, in assay [2], the IC50 was below 20 nM.
With `Cc1ccnc(N2CCN(CCNC(=O)c3ccc(S(=O)(=O)Nc4ccccc4Oc4ccc(Cl)cc4Cl)cc3)CC2)c1` [Example 54, 4-[2-(2,4-Dichloro-phenoxy)-phenylsulfamoyl]-N-{2-[4-(4-methyl-pyridin-2-yl)-piperazin-1-yl]-ethyl}-benzamide], the Ki in assay [1] lay in the range of 20 to 100 nM. Moreover, the IC50 in assay [2] is 20 to 100 nM.
Take `O=C(NCCCN1CCC(N2CCCCC2)CC1)c1ccc(S(=O)(=O)Nc2ccccc2Oc2ccc(F)cc2Cl)cc1` [Example 116, N-(3-[1,4′]Bipiperidinyl-1′-yl-propyl)-4-[2-(2-chloro-4-fluoro-phenoxy)-phenylsulfamoyl]-benzamide]: in assay [1], the Ki was below 20 nM. In addition, in assay [2], the IC50 is below 20 nM.

Source of the values: patent US20100075978A1, “SULFONAMIDE DERIVATIVES AS BRADYKININ ANTAGONISTS” (priority 2006, published 2010).
